Columns and labels:
Type in all cases: cell-based, human
MIA PaCa-2 cells = assay: Chemosensitivity (MTT cell viability) assay, MIA PaCa-2
Experimental: (§1) All cytotoxicity assays were conducted using human cell lines: breast adenocarcinomas (MDA-MB-231 and MCF-7), pancreatic carcinoma (MIA PaCa-2) and non-cancerous epithelial retinal (ARPE-19) cell lines. All cell lines were routinely maintained as monolayer cultures in appropriate complete media:
(§2) MCF-7, MIA PaCa-2 and ARPE-19 in high glucose DMEM and MDA-MB-231 in RPMI-1640, and both media were supplemented with 10% FBS, 1 mM sodium pyruvate, 2 mM L-glutamine, and 1% pen-strep. All cells were initially grown in T-25 or T-75 flasks at 37 °C and 5% CO2. Before chemosensitivity studies, cell monolayers were passaged using trypsin-EDTA (0.05%) and diluted to a concentration of 1 x 10^4 cells/mL (or 4 x 10^4 cells mL for 24 h assays). All assays were conducted in 96-well plates, in which 100 µL of the cell suspension was added for 24 h at 37 °C and 5% CO2, and then 100 µL of compound/medium dilutions for a further 96 h (or 24 h). All compound stocks were made using sterile DMSO at 100 mM before dilution, and a maximum of 0.1% DMSO was used in each assay. After incubation, 3-(4,5-dimethylthiazol-2-yl)-2,5-diphenyltetrazolium bromide (20 µL, 5 mg/mL in PBS) was added to each well and incubated for 3 h at 37°C and 5% CO2. All solutions were then aspirated, DMSO (150 µL) added to each well, gently mixed, and the absorbance was measured at 540 nm using a ClarioStar spectrophotometer microplate reader. Results were plotted on a logarithmic scale, and the half maximal inhibitory concentration (IC50) was determined from a triplicate of triplicate repeats (n = 9) and reported as an IC 50 ± Standard Deviation (SD).

MDA-MB-231 cells [1] = assay: Nuclei morphology assay (DAPI); conditions: MDA-MB-231, 48 h
Excerpt: The potential of compound 1 to trigger apoptosis in breast cancer cells was then studied. […] High-magnification insets (1–6) illustrate representative nuclear morphologies captured in the assay. Condensed, hyperintense nuclei with reduced area (e.g., images 1, 2 and 3), irregular nuclear blebs with discontinuous chromatin (e.g., images 3 and 4), and fragmented chromatin consistent with apoptotic bodies (e.g., images 5 and 6).
7 Microscopic visualization of nuclear morphology changes in MDA-MB-231 breast cancer cells after 48 h exposure to compound 1 or CDDP. […] Images were acquired using a Leica DMI8 fluorescence microscope at 40× magnification. […]
MDA-MB-231 cells at 4000 cells/well were seeded into a black clear -bottom 96-well plate using phenol-red free complete RMPI medium, and incubated for 48 h. […] Fluorescence images were obtained using a Zeiss Observer 7 inverted microscope at excitation at 488 nm and emission at 509 […]
Plasmid DNA (200 ng, pBOS -H2B-GFP, BD Biosciences) was incubated overnight at room temperature with 1 or CDDP at concentrations between 100 and 400 μM in double -distilled H2O (20 μL total volume). […] The experiment was conducted in two biological replicates, and the band intensities were quantified and analyzed using ImageJ software. […]

MCF-7 cells = assay: Chemosensitivity (MTT cell viability) assay, MCF-7
Experimental: as §1, §2

MDA-MB-231 cells [2] = assay: Chemosensitivity (MTT cell viability) assay, MDA-MB-231; conditions: for IC50: n = 9
Experimental: as §1, §2

**Q.** “[Cp*Ir(C16H14NO)(PTA)](PF6) [Compound 1]” was tested. Which IC50 (MIA PaCa-2 cells; MIA PaCa-2, 96 h, n = 9) did it give?
**A.** 9 ± 1 µM

**Q.** What about the “Selectivity index (SI)” value (MIA PaCa-2 cells; MIA PaCa-2 compared to ARPE-19, 96 h) of the same substance?
**A.** 1.2

**Q.** What about the Nuclear morphology (MDA-MB-231 cells [1]) of the same substance?
**A.** typical apoptotic features like DNA fragmentation and condensation

**Q.** And the IC50 (MCF-7 cells; MCF-7, 96 h, n = 9)?
**A.** 48 ± 3 µM

**Q.** What about the “Selectivity index (SI)” value (MCF-7 cells; MCF-7 compared to ARPE-19, 96 h) of the same substance?
**A.** 0.2

**Q.** And the IC50 (MDA-MB-231 cells [2]; MDA-MB-231, 24 h)?
**A.** 18 ± 1 µM

**Q.** And the IC50 (MDA-MB-231 cells [2]; MDA-MB-231, 96 h)?
**A.** 6.3 ± 0.7 µM

**Q.** And the “Selectivity index (SI)” value (MDA-MB-231 cells [2]; MDA-MB-231 compared to ARPE-19, 96 h)?
**A.** 1.7

— publication PMC12406195, “Understanding the Modes of Action of β‑Ketoiminato Iridium(III) Complexes in Cancer Cells” (Inorganic Chemistry, 2025)
